In the assay the target is T1, human P2X4 (Homo sapiens, UniProt Q99571).
T1 sequence (Q99571 1-388): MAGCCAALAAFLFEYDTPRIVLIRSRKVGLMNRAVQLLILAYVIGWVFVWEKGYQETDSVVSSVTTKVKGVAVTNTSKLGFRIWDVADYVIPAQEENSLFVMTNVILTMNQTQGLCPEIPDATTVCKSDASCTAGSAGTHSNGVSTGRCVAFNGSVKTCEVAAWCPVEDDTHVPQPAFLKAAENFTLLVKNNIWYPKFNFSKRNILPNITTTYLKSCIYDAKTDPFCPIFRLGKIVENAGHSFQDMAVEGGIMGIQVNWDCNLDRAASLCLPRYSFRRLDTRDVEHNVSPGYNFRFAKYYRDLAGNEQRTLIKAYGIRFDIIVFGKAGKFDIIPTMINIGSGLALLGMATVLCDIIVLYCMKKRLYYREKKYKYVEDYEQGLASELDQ
Kind of assay: Human P2X4 HEK Cell FLIPR Assay. The note with it: agonist Bz-ATP at EC80; for Emax: HEK293, HEK293 cells, percentage of maximal inhibition, read-out: Human P2X4 HEK Cells (FLIPR Assay) avg Efficacy [%]; for IC50: HEK293 cells, individual values listed where some fall outside detection range. Format: cell-based. The essentials: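 HEK293 cells stably expressing human P2X4, Fluo8-AM loaded 30 min at 37° C, then compound 30 min at room temperature (0.5% DMSO, pH 7.4 buffer with 1.8 mM CaCl2). Bz-ATP at its daily-determined EC80 added; calcium fluorescence read over 120 sec; IC50 from peak RFU normalized to agonist control, triplicates.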

Where only a bound is given, the exact number is not on record here.

Consider `NS(=O)(=O)c1cc(NC(=O)Cc2ccc(Cl)cc2Cl)ccc1-n1cc(Cl)cn1` [Example 79, N-[4-(4-Chloro-1H-pyrazol-1-yl)-3-sulfamoylphenyl]-2-(2,4-dichlorophenyl)acetamide], for which the Emax was determined as 78% and the IC50 was 2030 nM.

Take `NS(=O)(=O)c1cc(NC(=O)Cc2c(Cl)cccc2Cl)ccc1-n1cc(Cl)cn1` [Example 80, N-[4-(4-Chloro-1H-pyrazol-1-yl)-3-sulfamoylphenyl]-2-(2,6-dichlorophenyl)acetamide]: the Emax came out at 96% and the IC50 came out at 79 nM.

Consider `NS(=O)(=O)c1cc(NC(=O)Cc2ccc(F)c(F)c2)ccc1-n1cc(Cl)cn1` [Example 81, N-[4-(4-Chloro-1H-pyrazol-1-yl)-3-sulfamoylphenyl]-2-(3,4-difluorophenyl)acetamide], for which the Emax came out at 40% and the IC50 was greater than 25000 nM.

For the molecule `NS(=O)(=O)c1cc(NC(=O)Cc2cccc(Cl)c2)ccc1-n1cc(Cl)cn1` [Example 82, 2-(3-Chlorophenyl)-N-[4-(4-chloro-1H-pyrazol-1-yl)-3-sulfamoylphenyl]acetamide], the Emax is 36% and the half-maximal inhibitory concentration (IC50) is greater than 25000 nM.

Regarding `NS(=O)(=O)c1cc(NC(=O)Cc2cc(F)cc(F)c2)ccc1-n1cc(Cl)cn1` [Example 83, N-[4-(4-Chloro-1H-pyrazol-1-yl)-3-sulfamoylphenyl]-2-(3,5-difluorophenyl)acetamide], the Emax was 36% and the 50% inhibitory concentration (IC50) was greater than 25000 nM.

In the case of `NS(=O)(=O)c1cc(NC(=O)Cc2ccc(F)cc2)ccc1-n1cc(Cl)cn1` [Example 84, N-[4-(4-Chloro-1H-pyrazol-1-yl)-3-sulfamoylphenyl]-2-(4-fluorophenyl)acetamide], the Emax is 29% and the IC50 was greater than 25000 nM.

For the molecule `NS(=O)(=O)c1cc(NC(=O)Cc2ccccc2O)ccc1-n1cc(Cl)cn1` [Example 85, N-[4-(4-Chloro-1H-pyrazol-1-yl)-3-sulfamoylphenyl]-2-(2-hydroxyphenyl)acetamide], the Emax was 92% and the IC50 is 42 nM.

As to `NS(=O)(=O)c1cc(NC(=O)Cc2ccc(O)cc2)ccc1-n1cc(Cl)cn1` [Example 86, N-[4-(4-Chloro-1H-pyrazol-1-yl)-3-sulfamoylphenyl]-2-(4-hydroxyphenyl)acetamide], the Emax came to 97% and the concentration for half-maximal inhibition (IC50) stood at 353 nM.

Regarding `NS(=O)(=O)c1cc(NC(=O)Cc2cccc(F)c2F)ccc1-n1cc(Cl)cn1` [Example 87, N-[4-(4-Chloro-1H-pyrazol-1-yl)-3-sulfamoylphenyl]-2-(2,3-difluorophenyl)acetamide], the Emax is 82% and the half-maximal inhibitory concentration (IC50) was found to be 342 nM.

Regarding `NS(=O)(=O)c1cc(NC(=O)Cc2ccc(F)cc2Cl)ccc1-n1cc(Cl)cn1` [Example 88, 2-(2-Chloro-4-fluorophenyl)-N-[4-(4-chloro-1H-pyrazol-1-yl)-3-sulfamoyl-phenyl]acetamide], the Emax stood at 87% and the IC50 is 80 nM.

Turning to `NS(=O)(=O)c1cc(NC(=O)Cc2cccnc2Cl)ccc1-n1cc(Cl)cn1` [Example 89, N-[4-(4-Chloro-1H-pyrazol-1-yl)-3-sulfamoylphenyl]-2-(2-chloropyridin-3-yl)-acetamide], the Emax is 83% and the IC50 was 2320 nM.

On to `NS(=O)(=O)c1cc(NC(=O)Cc2cccc(C(F)(F)F)c2Cl)ccc1-n1cc(Cl)cn1` [Example 90, N-[4-(4-Chloro-1H-pyrazol-1-yl)-3-sulfamoylphenyl]-2-[2-chloro-3-(trifluoromethyl)-phenyl]acetamide], for which the Emax worked out at 85% and the IC50 was determined as 774 nM.

With `NS(=O)(=O)c1cc(NC(=O)Cc2ccccc2OC(F)F)ccc1-n1cc(Cl)cn1` [Example 91, N-[4-(4-Chloro-1H-pyrazol-1-yl)-3-sulfamoylphenyl]-2-[2-(difluoromethoxy)-phenyl]acetamide], the Emax was found to be 94% and the half-inhibitory concentration (IC50) is 169 nM.

Consider `NS(=O)(=O)c1cc(NC(=O)Cc2ccccc2OC(F)(F)F)ccc1-n1cc(Cl)cn1` [Example 92, N-[4-(4-Chloro-1H-pyrazol-1-yl)-3-sulfamoylphenyl]-2-[2-(trifluoromethoxy)-phenyl]acetamide], for which the Emax amounted to 92% and the concentration for half-maximal inhibition (IC50) is 143 nM.

Take `NS(=O)(=O)c1cc(NC(=O)Cc2cc(F)c(F)cc2Cl)ccc1-n1cc(Cl)cn1` [Example 93, 2-(2-Chloro-4,5-difluorophenyl)-N-[4-(4-chloro-1H-pyrazol-1-yl)-3-sulfamoylphenyl]-acetamide]: the Emax was determined as 73% and the half-inhibitory concentration (IC50) is 74 nM.

For `COc1ccc(CC(=O)Nc2ccc(-n3cc(Cl)cn3)c(S(N)(=O)=O)c2)c(Cl)c1` [Example 94, 2-(2-Chloro-4-methoxyphenyl)-N-[4-(4-chloro-1H-pyrazol-1-yl)-3-sulfamoylphenyl]-acetamide], the Emax amounted to 72% and the concentration for half-maximal inhibition (IC50) turned out to be 413 nM.

Consider `Cc1ccc(F)c(CC(=O)Nc2ccc(-n3cc(Cl)cn3)c(S(N)(=O)=O)c2)c1Cl` [Example 95, 2-(2-Chloro-6-fluoro-3-methylphenyl)-N-[4-(4-chloro-1H-pyrazol-1-yl)-3-sulfamoyl-phenyl]acetamide], for which the Emax is 87% and the IC50 is 54 nM.

Take `NS(=O)(=O)c1cc(NC(=O)Cc2c(F)ccc(F)c2Cl)ccc1-n1cc(Cl)cn1` [Example 96, 2-(2-Chloro-3,6-difluorophenyl)-N-[4-(4-chloro-1H-pyrazol-1-yl)-3-sulfamoylphenyl]-acetamide]: the Emax came to 83% and the IC50 amounted to 233 nM.

`Cc1ccc(Cl)c(CC(=O)Nc2ccc(-n3cc(Cl)cn3)c(S(N)(=O)=O)c2)c1` [Example 97, 2-(2-Chloro-5-methylphenyl)-N-[4-(4-chloro-1H-pyrazol-1-yl)-3-sulfamoylphenyl]-acetamide]: the Emax is 103% and the IC50 came to 201 nM.

Consider `NS(=O)(=O)c1cc(NC(=O)Cc2cc(F)ccc2Cl)ccc1-n1cc(Cl)cn1` [Example 98, 2-(2-Chloro-5-fluorophenyl)-N-[4-(4-chloro-1H-pyrazol-1-yl)-3-sulfamoylphenyl]-acetamide], for which the Emax was 77% and the IC50 amounted to 124 nM.

As to `NS(=O)(=O)c1cc(NC(=O)Cc2cc(Cl)ccc2Cl)ccc1-n1cc(Cl)cn1` [Example 99, N-[4-(4-Chloro-1H-pyrazol-1-yl)-3-sulfamoylphenyl]-2-(2,5-dichlorophenyl)acetamide], the Emax came out at 87% and the half-inhibitory concentration (IC50) came out at 499 nM.

`CC(C)c1ccccc1CC(=O)Nc1ccc(-n2cc(Cl)cn2)c(S(N)(=O)=O)c1` [Example 100, N-[4-(4-Chloro-1H-pyrazol-1-yl)-3-sulfamoylphenyl]-2-(2-isopropylphenyl)acetamide]: the Emax was 86% and the IC50 was 319 nM.

As to `COc1ccc(Cl)c(CC(=O)Nc2ccc(-n3cc(Cl)cn3)c(S(N)(=O)=O)c2)c1` [Example 101, 2-(2-Chloro-5-methoxyphenyl)-N-[4-(4-chloro-1H-pyrazol-1-yl)-3-sulfamoylphenyl]-acetamide], the Emax is 83% and the IC50 turned out to be 202 nM.

Regarding `NS(=O)(=O)c1cc(NC(=O)Cc2c(F)cc(F)cc2Cl)ccc1-n1cc(Cl)cn1` [Example 102, 2-(2-Chloro-4,6-difluorophenyl)-N-[4-(4-chloro-1H-pyrazol-1-yl)-3-sulfamoylphenyl]-acetamide], the Emax is 80% and the half-maximal inhibitory concentration (IC50) is 99 nM.

With `NS(=O)(=O)c1cc(NC(=O)Cc2c(Cl)cccc2C(F)(F)F)ccc1-n1cc(Cl)cn1` [Example 103, N-[4-(4-Chloro-1H-pyrazol-1-yl)-3-sulfamoylphenyl]-2-[2-chloro-6-(trifluoromethyl)-phenyl]acetamide], the Emax turned out to be 103% and the concentration for half-maximal inhibition (IC50) came out at 174 nM.

`Cc1cc(F)c(Br)cc1CC(=O)Nc1ccc(-n2cc(Cl)cn2)c(S(N)(=O)=O)c1` [Example 104, 2-(5-Bromo-4-fluoro-2-methylphenyl)-N-[4-(4-chloro-1H-pyrazol-1-yl)-3-sulfamoyl-phenyl]acetamide]: the Emax turned out to be 95% and the concentration for half-maximal inhibition (IC50) is 2230 nM.

With `COc1cccc(Cl)c1CC(=O)Nc1ccc(-n2cc(Cl)cn2)c(S(N)(=O)=O)c1` [Example 105, 2-(2-Chloro-6-methoxyphenyl)-N-[4-(4-chloro-1H-pyrazol-1-yl)-3-sulfamoyl-phenyl]acetamide], the Emax amounted to 101% and the IC50 worked out at 108 nM.

`CC(C(=O)Nc1ccc(-n2cc(Cl)cn2)c(S(N)(=O)=O)c1)c1c(F)cccc1F` (stereo not shown) [Example 106, N-[4-(4-Chloro-1H-pyrazol-1-yl)-3-sulfamoylphenyl]-2-(2,6-difluorophenyl)-propanamide]: the Emax came out at 92% and the IC50 was determined as 4630 nM.

As for `NS(=O)(=O)c1cc(NC(=O)Cc2ccc(C(F)F)cc2)ccc1-n1cc(Cl)cn1` [Example 107, N-[4-(4-Chloro-1H-pyrazol-1-yl)-3-sulfamoylphenyl]-2-[4-(difluoromethyl)-phenyl]acetamide], the Emax is 44% and the half-maximal inhibitory concentration (IC50) was greater than 25000 nM.

Broadly, the IC50 is the concentration that inhibits the measured activity by half. Low readings indicate higher potency, high ones lower potency.

For the origin of these results see patent US11524938B2, “Aromatic sulfonamide derivatives” (Bayer Pharma Aktiengesellschaft, priority 2016, dated 2022).
